{"source": "patent US8541223B2", "about": "“Lactic acid bacteria having action of lowering blood uric acid level” (Meiji Co., Ltd., priority 2007, dated 2013)", "origin": "cited, not measured here", "tested_on": "dietary hyperuricemia model animals", "conditions": "oral administration of allopurinol; from Food Function Research News vol. 14"}
{"smiles": "Oc1ncnc2[nH]ncc12", "note": "[allopurinol]", "values": [{"measurement": "blood uric acid level in the model animals", "value": "significantly suppressed"}]}
